According to PubChem BioAssay (NCI):
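Where inhibition never reached the appropriate level, the endpoint shown equals the highest concentration tested. Otherwise, values were interpolated linearly from a five-concentration, 48-hour dose response in 96-well plates. At the GI50, growth is halved. TGI: total growth inhibition.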

What was measured:
Assay in all cases: inhibition of tumour cell growth, NCI panel, 48 h
786-0 renal = system: 786-0 renal
A498 renal = system: A498 renal
A549 NSCLC = system: A549 NSCLC
ACHN renal = system: ACHN renal
CCRF-CEM leukemia = system: CCRF-CEM leukemia
COLO 205 colon = system: COLO 205 colon
DU-145 prostate = system: DU-145 prostate
EKVX NSCLC = system: EKVX NSCLC
HCC-2998 colon = system: HCC-2998 colon
HCT-116 colon = system: HCT-116 colon
HCT-15 colon = system: HCT-15 colon
HL-60(TB) leukemia = system: HL-60(TB) leukemia
HOP-62 NSCLC = system: HOP-62 NSCLC
HOP-92 NSCLC = system: HOP-92 NSCLC
HS 578T breast = system: HS 578T breast
HT29 colon = system: HT29 colon
IGROV1 ovarian = system: IGROV1 ovarian
K-562 leukemia = system: K-562 leukemia
KM12 colon = system: KM12 colon
LOX IMVI melanoma = system: LOX IMVI melanoma
M14 melanoma = system: M14 melanoma
MALME-3M melanoma = system: MALME-3M melanoma
MCF7 breast = system: MCF7 breast
MDA-MB-231 breast = system: MDA-MB-231 breast
MDA-MB-435 = system: MDA-MB-435
MOLT-4 leukemia = system: MOLT-4 leukemia
NCI-H226 lung = system: NCI-H226 lung
NCI-H23 lung = system: NCI-H23 lung
NCI-H460 lung = system: NCI-H460 lung
NCI/ADR-RES ovarian = system: NCI/ADR-RES ovarian
OVCAR-4 ovarian = system: OVCAR-4 ovarian
OVCAR-5 ovarian = system: OVCAR-5 ovarian
OVCAR-8 ovarian = system: OVCAR-8 ovarian
RPMI-8226 leukemia = system: RPMI-8226 leukemia
RXF 393 renal = system: RXF 393 renal
SF-268 CNS = system: SF-268 CNS
SF-295 CNS = system: SF-295 CNS
SF-539 CNS = system: SF-539 CNS
SK-MEL-28 melanoma = system: SK-MEL-28 melanoma
SK-MEL-5 melanoma = system: SK-MEL-5 melanoma
SK-OV-3 ovarian = system: SK-OV-3 ovarian
SN12C renal = system: SN12C renal
SNB-19 CNS = system: SNB-19 CNS
SNB-75 CNS = system: SNB-75 CNS
SR leukemia = system: SR leukemia
SW-620 colon = system: SW-620 colon
T-47D breast = system: T-47D breast
TK-10 renal = system: TK-10 renal
U251 CNS = system: U251 CNS
UACC-257 melanoma = system: UACC-257 melanoma
UACC-62 melanoma = system: UACC-62 melanoma
UO-31 renal = system: UO-31 renal
BT-549 breast = system: BT-549 breast
CAKI-1 renal = system: CAKI-1 renal
NCI-H522 lung = system: NCI-H522 lung
OVCAR-3 ovarian = system: OVCAR-3 ovarian
PC-3 prostate = system: PC-3 prostate
SK-MEL-2 melanoma = system: SK-MEL-2 melanoma

With `CC(C)=C/C(CC(O)(C(F)(F)F)C(F)(F)F)=N\O` the TGI (786-0 renal) was > 100 µM, the TGI (A498 renal) was > 100 µM and the TGI (A549 NSCLC) was > 100 µM. The TGI (ACHN renal) was > 100 µM, the TGI (CCRF-CEM leukemia) was > 100 µM and the TGI (COLO 205 colon) was > 100 µM. For the same molecule, the TGI (DU-145 prostate) was > 100 µM, the TGI (EKVX NSCLC) was > 100 µM and the TGI (HCC-2998 colon) was > 100 µM. The TGI (HCT-116 colon) was > 100 µM, the TGI (HCT-15 colon) was > 100 µM and the TGI (HL-60(TB) leukemia) was > 100 µM. For the same molecule, the TGI (HOP-62 NSCLC) was > 100 µM, the TGI (HOP-92 NSCLC) was > 100 µM and the TGI (HS 578T breast) was > 100 µM. The TGI (HT29 colon) was > 100 µM, the TGI (IGROV1 ovarian) was > 100 µM and the TGI (K-562 leukemia) was > 100 µM. The TGI (KM12 colon) was > 100 µM, the TGI (LOX IMVI melanoma) was > 100 µM and the TGI (M14 melanoma) was > 100 µM. For the same molecule, the TGI (MALME-3M melanoma) was > 100 µM, the TGI (MCF7 breast) was > 100 µM and the TGI (MDA-MB-231 breast) was > 100 µM. For the same molecule, the TGI (MDA-MB-435) was > 100 µM, the TGI (MOLT-4 leukemia) was > 100 µM and the TGI (NCI-H226 lung) was > 100 µM. For the same molecule, the TGI (NCI-H23 lung) was > 100 µM, the TGI (NCI-H460 lung) was > 100 µM and the TGI (NCI/ADR-RES ovarian) was > 100 µM. For the same molecule, the TGI (OVCAR-4 ovarian) was > 100 µM, the TGI (OVCAR-5 ovarian) was > 100 µM and the TGI (OVCAR-8 ovarian) was > 100 µM. The TGI (RPMI-8226 leukemia) was > 100 µM, the TGI (RXF 393 renal) was > 100 µM and the TGI (SF-268 CNS) was > 100 µM. For the same molecule, the TGI (SF-295 CNS) was > 100 µM, the TGI (SF-539 CNS) was > 100 µM and the TGI (SK-MEL-28 melanoma) was > 100 µM. For the same molecule, the TGI (SK-MEL-5 melanoma) was > 100 µM, the TGI (SK-OV-3 ovarian) was > 100 µM and the TGI (SN12C renal) was > 100 µM. The TGI (SNB-19 CNS) was > 100 µM, the TGI (SNB-75 CNS) was > 100 µM and the TGI (SR leukemia) was > 100 µM. The TGI (SW-620 colon) was > 100 µM, the TGI (T-47D breast) was > 100 µM and the TGI (TK-10 renal) was > 100 µM. The TGI (U251 CNS) was > 100 µM, the TGI (UACC-257 melanoma) was > 100 µM and the TGI (UACC-62 melanoma) was > 100 µM. For the same molecule, the TGI (UO-31 renal) was > 100 µM.

`C=C(C)[C@@H]1CC[C@]2(C(=O)NS(=O)(=O)c3ccccc3)CC[C@]3(C)[C@H](CC[C@@H]4[C@@]5(C)CC[C@H](OC(=O)NS(=O)(=O)c6ccccc6)C(C)(C)[C@@H]5CC[C@]43C)[C@@H]12` gave a GI50 (786-0 renal) of 2.42 µM, a TGI (786-0 renal) of 6.93 µM and a GI50 (A498 renal) of 1.65 µM. It also gave a TGI (A498 renal) of 4.69 µM, a GI50 (A549 NSCLC) of 3.24 µM and a TGI (A549 NSCLC) of 21.8 µM. It also gave a GI50 (ACHN renal) of 2.73 µM, a TGI (ACHN renal) of 9 µM and a GI50 (BT-549 breast) of 1.79 µM. It also gave a TGI (BT-549 breast) of 6.31 µM, a GI50 (CAKI-1 renal) of 3.06 µM and a TGI (CAKI-1 renal) of 22.5 µM. The GI50 (CCRF-CEM leukemia) was 2.29 µM, the TGI (CCRF-CEM leukemia) was 19.5 µM and the GI50 (COLO 205 colon) was 1.54 µM. It also gave a TGI (COLO 205 colon) of 3.08 µM, a GI50 (DU-145 prostate) of 3.18 µM and a TGI (DU-145 prostate) of 13.8 µM. It also gave a GI50 (EKVX NSCLC) of 3.17 µM, a TGI (EKVX NSCLC) of 21.9 µM and a GI50 (HCC-2998 colon) of 1.42 µM. For the same molecule, the TGI (HCC-2998 colon) was 2.85 µM, the GI50 (HCT-116 colon) was 1.47 µM and the TGI (HCT-116 colon) was 3.56 µM. For the same molecule, the GI50 (HCT-15 colon) was 1.62 µM, the TGI (HCT-15 colon) was 4.65 µM and the GI50 (HL-60(TB) leukemia) was 2.24 µM. For the same molecule, the TGI (HL-60(TB) leukemia) was 5.08 µM, the GI50 (HOP-62 NSCLC) was 2.33 µM and the TGI (HOP-62 NSCLC) was 6.83 µM. For the same molecule, the GI50 (HOP-92 NSCLC) was 1.9 µM, the TGI (HOP-92 NSCLC) was 4.72 µM and the GI50 (HS 578T breast) was 1.49 µM. The TGI (HS 578T breast) was 10.1 µM, the GI50 (HT29 colon) was 2.03 µM and the TGI (HT29 colon) was 11 µM. For the same molecule, the GI50 (IGROV1 ovarian) was 2.46 µM, the TGI (IGROV1 ovarian) was 5.56 µM and the GI50 (K-562 leukemia) was 1.41 µM. For the same molecule, the TGI (K-562 leukemia) was 17.3 µM, the GI50 (KM12 colon) was 1.34 µM and the TGI (KM12 colon) was 2.96 µM. It also gave a GI50 (LOX IMVI melanoma) of 1.56 µM, a TGI (LOX IMVI melanoma) of 3.06 µM and a GI50 (M14 melanoma) of 1.99 µM. For the same molecule, the TGI (M14 melanoma) was 6.89 µM, the GI50 (MALME-3M melanoma) was 2.09 µM and the TGI (MALME-3M melanoma) was 5.32 µM. For the same molecule, the GI50 (MCF7 breast) was 2.93 µM, the TGI (MCF7 breast) was 10.8 µM and the GI50 (MDA-MB-231 breast) was 2.92 µM. It also gave a TGI (MDA-MB-231 breast) of 12.1 µM, a GI50 (MDA-MB-435) of 1.77 µM and a TGI (MDA-MB-435) of 4.89 µM. For the same molecule, the GI50 (MOLT-4 leukemia) was 2.58 µM, the TGI (MOLT-4 leukemia) was 24 µM and the GI50 (NCI-H226 lung) was 2.38 µM. The TGI (NCI-H226 lung) was 13.8 µM, the GI50 (NCI-H23 lung) was 2.41 µM and the TGI (NCI-H23 lung) was 8.51 µM. It also gave a GI50 (NCI-H460 lung) of 1.49 µM, a TGI (NCI-H460 lung) of 3.26 µM and a GI50 (NCI-H522 lung) of 2.48 µM. It also gave a TGI (NCI-H522 lung) of 9.19 µM, a GI50 (NCI/ADR-RES ovarian) of 3.87 µM and a TGI (NCI/ADR-RES ovarian) of 24 µM. The GI50 (OVCAR-3 ovarian) was 1.85 µM, the TGI (OVCAR-3 ovarian) was 3.62 µM and the GI50 (OVCAR-4 ovarian) was 3.04 µM. It also gave a TGI (OVCAR-4 ovarian) of 51.4 µM, a GI50 (OVCAR-5 ovarian) of 3.02 µM and a TGI (OVCAR-5 ovarian) of 11.8 µM. For the same molecule, the GI50 (OVCAR-8 ovarian) was 2.89 µM, the TGI (OVCAR-8 ovarian) was 19.1 µM and the GI50 (PC-3 prostate) was 2.11 µM. It also gave a TGI (PC-3 prostate) of 20.6 µM, a GI50 (RPMI-8226 leukemia) of 1.37 µM and a TGI (RPMI-8226 leukemia) of 6.18 µM. It also gave a GI50 (RXF 393 renal) of 1.61 µM, a TGI (RXF 393 renal) of 3.26 µM and a GI50 (SF-268 CNS) of 3.03 µM. The TGI (SF-268 CNS) was 32.1 µM, the GI50 (SF-295 CNS) was 0.281 µM and the TGI (SF-295 CNS) was 2.23 µM. The GI50 (SF-539 CNS) was 1.27 µM, the TGI (SF-539 CNS) was 2.59 µM and the GI50 (SK-MEL-2 melanoma) was 2.01 µM. The TGI (SK-MEL-2 melanoma) was 4.97 µM, the GI50 (SK-MEL-28 melanoma) was 2.05 µM and the TGI (SK-MEL-28 melanoma) was 5.32 µM. For the same molecule, the GI50 (SK-MEL-5 melanoma) was 1.48 µM, the TGI (SK-MEL-5 melanoma) was 2.98 µM and the GI50 (SK-OV-3 ovarian) was 2.6 µM. The TGI (SK-OV-3 ovarian) was 8.22 µM, the GI50 (SN12C renal) was 2.34 µM and the TGI (SN12C renal) was 15.7 µM. The GI50 (SNB-19 CNS) was 3.42 µM, the TGI (SNB-19 CNS) was 18.2 µM and the GI50 (SNB-75 CNS) was 3.44 µM. It also gave a TGI (SNB-75 CNS) of 18.5 µM, a GI50 (SW-620 colon) of 3.27 µM and a TGI (SW-620 colon) of 15.2 µM. For the same molecule, the GI50 (T-47D breast) was 1.74 µM, the TGI (T-47D breast) was 7.37 µM and the GI50 (TK-10 renal) was 2.43 µM. The TGI (TK-10 renal) was 10.3 µM, the GI50 (U251 CNS) was 1.46 µM and the TGI (U251 CNS) was 5.96 µM. The GI50 (UACC-257 melanoma) was 3.06 µM, the TGI (UACC-257 melanoma) was 9.06 µM and the GI50 (UACC-62 melanoma) was 1.32 µM. It also gave a TGI (UACC-62 melanoma) of 2.92 µM, a GI50 (UO-31 renal) of 1.49 µM and a TGI (UO-31 renal) of 3.04 µM.
